Measured values taken from paper PMC8618880, “Discovery of GOT1 Inhibitors from a Marine-Derived Aspergillus terreus That Act against Pancreatic Ductal Adenocarcinoma” (Marine Drugs, 2021).
Each block holds one molecule with its values, some of them ahead of it.

Tests used:
GOT1 [1] = target: T1, GOT1 (Homo sapiens, UniProt P17174); test: GOT1 enzymatic activity (inhibition) assay, MDH-coupled, absorbance 340 nm; type: biochemical; conditions: in vitro, read-out: GOT1-inhibitory activity IC50
Protocol: The GOT1 enzymatic activity assay was carried out using a 96-well plate reader as previously reported. The 100 μL reaction system contained 0.1 mg/mL recombinant GOT1 protein, 1 mM α -KG, 1 mM NADH, 4 mM Asp, and 1 U/mL malate dehydrogenase, and measured absorbance at a wavelength of 340 nm. The degree of absorbance decrease was in direct proportion to GOT1 activity. The inhibitory activity in vitro was measured by adding different concentrations of compounds. SigmaPlot with the PlotEnzyme Kinetics Module was used to analyze the enzyme activity.

[2] = MTT cell viability assay, nonmalignant pancreatic duct epithelial cells; type: cell-based; conditions: human, HPDE6C7 nonmalignant pancreatic duct epithelial cells, read-out: cytotoxicity IC50
Protocol: (§1) Pancreas (SW1990, AsPC-1, PANC-1), colorectal (HCT116), breast (HCC1806, MM231, MM453), and ovarian cancer cells (ES2), along with a nonmalignant human pancreatic duct epithelial cell line (HDPE6C7), were obtained from ATCC, and were cultured in 1640 medium or Dulbecco’s modified Eagle medium (DMEM) supplemented with 10% (v/v) fetal bovine serum (FBS), 100 μg/mL streptomycin, and 100 U/mL penicillin. Cells were maintained in a humidified atmosphere of 5% CO2 at 37 °C. MTT (3-(4,5-dimethylthiazol-2-yl)-2,5-diphenyl tetrazolium bromide) assay was used to assess the cell viability. Briefly, cells were seeded in 96-well plates at a density of 5 × 10^3 cells per well for 24 h. Then, the medium was removed, and the cells were treated with different concentrations (0.1–100 μM) of AH, with DMSO as a vehicle control. After incubation for 48 h, 100 μL of MTT solution (2 mg/mL) was added to each well, and the wells were incubated at 37 °C for another 4 h. The formed formazan crystals were dissolved in DMSO (200 μL/well) and shaken for 5 min. Then, the absorbance of the solution was measured at 490 nm with a microplate reader. IC50 values were interpolated from the resulting dose-dependent curves using GraphPad Prism 7.0. The reported IC50 values are the average of three independent experiments, each consisting of six replicates per concentration level (overall n = 18).

SW1990 cells [3] = test: Cell cycle assay, PI staining, flow cytometry; type: cell-based, human
Protocol: The phase distribution of DNA content was determined via propidium iodide (PI) staining. Cells were treated with varying doses of AH or vehicle for 48 h, and then the cell pellets were stained in the dark for 30 min with 60 μg/mL RNase A and 30 μg/mL PI. Finally, CellQuest software (Becton-Dickinson, Franklin Lakes, NJ, USA) was used to perform flow cytometric studies. Three separate experiments were used to determine the cell cycle.

SW1990 cells [4] = test: Metabolite abundance and NADPH/NADP+ ratio in cells; type: cell-based, human; conditions: AH 10, 20 or 40 µM
Protocol: SW1990 cells were cultivated to around 50% confluence in DMEM media with 10 mM glucose, 2 mM glutamine, and 5% FBS. A complete medium was prepared prior to two hours of metabolite collection. Quantification kits were used to determine the abundance of Asp (Abcam, #ab102512, Cambridge, UK), Gln (BioVision, #K55, San Francisco, CA, USA), malate (BioVision, #K637, San Francisco, CA, USA), and OAA (Abcam, #ab83428, Cambridge, UK). According to the manufacturer’s instructions, we collected some cells and homogenized them in the buffers provided. The supernatants were centrifuged, and then deproteinized using a 10 K spin column before being analyzed and compared to standard curves.

SW1990 xenografts = test: SW1990 xenograft in CB-17/SCID mice; type: in vivo
Protocol: Animal treatment and experiments were conducted in the Experimental Animal Center. Commercial 8-week-old CB-17/SCID mice (male) were purchased from Huafukang, China. After being resuspended using 0.1 mL of PBS, SW1990 cells (3 × 10^6) were injected subcutaneously into the lower flanks of the mice. When the tumors attained a diameter of ~3 mm, the mice were randomly divided into three groups—2.5 mg/kg, 5 mg/kg, and control—and were subsequently injected intraperitoneally with normal saline or AH every day. A Vernier caliper was used to measure the size of the tumors. After two weeks of therapy, mice were euthanized under deep anesthesia (chloral hydrate, 10%, 10 μL/g), and tumor tissue metabolites were detected using the above method. All animal studies were carried out in accordance with the Huazhong University of Science and Technology’s guidelines.

SW1990 cells [5] = test: EDU staining and wound-healing cell migration test; type: cell-based, human; conditions: 0-40 µM, 0-48 h
Protocol: SW1990 cells were seeded in 6-well plates for 24 h. Each well was scratched with a 10 μL pipette tip, and then the plate was washed with PBS to peel off the suspended cells, before adding different concentrations of AH (0–40 μM). Images from the same area of the wound were taken separately under a microscope from 0 to 48 h.

[6] = test system: SW1990, PANC-1, and AsPC-1 cell lines; test: MTT cell viability assay, PDAC cell lines; type: cell-based; conditions: Homo sapiens, 48 h, read-out: cytotoxicity IC50
Protocol: as §1

SW1990 cells [7] = test: Annexin V-FITC/PI apoptosis assay by flow cytometry; type: cell-based, human; conditions: 48 h
Protocol: The Annexin V–FITC apoptosis kit was purchased from USA BD PharMingen™. In brief, different concentrations of AH were added to the wells for 48 h, and then the cells were harvested, before being resuspended in Annexin-binding buffer and incubated with Annexin V–FITC (10 mg/mL) and PI in the dark for 15 min. Flow cytometry was used to detect the stained cells and analyze the apoptosis immediately.

SW1990 cells [8] = test: Intracellular ROS measurement with DCFDA; type: cell-based, human; conditions: AH 10, 20 or 40 µM
Source text: GOT1 is a key enzyme that is involved in the production of Gln-dependent NADPH in PDAC, and catalyzes the reversible conversion of Asp to OAA. To investigate the effects of AH on Gln metabolism, the associated metabolites including OAA and malate (Mal) were detected. […] As excessive reactive oxygen species (ROS) can enhance cellular oxidative stress—resulting in damage to DNA, proteins, or lipids, causing apoptosis or necrosis [29]—we examined the physiological correlation between AH treatment and ROS response. 2,7-Dichlorofluorescein diacetate (DCFDA) was used to measure the intracellular ROS levels.

GOT1 [9] = target: T1, GOT1; test: Microscale thermophoresis (MST) binding to GOT1; conditions: read-out: Kd value between AH and GOT1
Protocol: The Monolith NTTM Protein Labeling Kit was used to test the binding capacity of proteins to AH, according to the manufacturer’s instructions. GOT1 was labeled and diluted in a buffer containing 20 mM HEPES (pH 7.5) and Tween-20 (0.5 (v/v)%), and then incubated with different concentration of AH for 10 min at 37 °C. Subsequently, the materials were put into standard capillary tubes and tested for thermophoresis using a Monolith NT.115 instrument (NanoTemper Technologies, München, Germany). The parameters were set to temperature 25 °C, LED power 100%, and laser power 40%, with a 30 s on-time. NTAnalysis software was used to calculate the Kd values.

[10] = 2.5 and 5 mg/kg/d intraperitoneal, 14 days
[11] = tumor tissue after 14 days treatment

T1 sequence (P17174 whole entry): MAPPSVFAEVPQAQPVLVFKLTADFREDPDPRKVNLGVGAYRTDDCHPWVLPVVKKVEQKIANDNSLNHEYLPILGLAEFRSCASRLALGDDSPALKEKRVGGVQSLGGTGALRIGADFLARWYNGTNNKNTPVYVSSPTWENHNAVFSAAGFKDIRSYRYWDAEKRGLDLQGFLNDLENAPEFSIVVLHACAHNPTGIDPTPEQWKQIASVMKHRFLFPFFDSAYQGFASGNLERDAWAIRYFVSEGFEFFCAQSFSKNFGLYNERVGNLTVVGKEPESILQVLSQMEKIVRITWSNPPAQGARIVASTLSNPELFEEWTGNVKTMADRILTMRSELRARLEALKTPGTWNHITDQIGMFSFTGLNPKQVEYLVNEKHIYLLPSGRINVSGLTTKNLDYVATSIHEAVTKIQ

IC50 (GOT1 [1]): 26.38 ± 0.1 µM
SMILES: COC(=O)[C@]1(Cc2ccc(O)c(CC=C(C)C)c2)OC(=O)C(O)=C1c1ccc(O)c(CC=C(C)C)c1 [Compound 12, (+)-3′,3′-di-(dimethylallyl)-butyrolactone II]

IC50 (GOT1 [1]): 19.16 ± 0.15 µM
SMILES: CO[C@H]1OC(=O)C(c2ccc(O)cc2)=C1Cc1ccc(O)c(CC=C(C)C)c1 [Compound 5, (+)-asperteretone B]

SMILES: CC(C)=CCc1cc(/C=C2\OC(=O)C(c3ccc(O)c(CC=C(C)C)c3)=C2O)ccc1O [Compound 6, aspulvinone H]
IC50 at 48 h [2]: > 100 µM
proportion of S-phase cells (SW1990 cells [3]; SW1990, 10 µM): 32.5%
proportion of cells in G0/G1 phase (SW1990 cells [3]; SW1990, 10 µM): 59.4%
proportion of S-phase cells (SW1990 cells [3]; SW1990, 20 µM): 38.6%
proportion of cells in G0/G1 phase (SW1990 cells [3]; SW1990, 20 µM): 48.6%
proportion of S-phase cells (SW1990 cells [3]; SW1990, 40 µM): 43.9%
proportion of cells in G0/G1 phase (SW1990 cells [3]; SW1990, 40 µM): 43.5%
change in G2/M phase (SW1990 cells [3]; SW1990, high-dose AH): only a slight increase
content of Asp (SW1990 cells [4]): increasing
content of Mal (SW1990 cells [4]): reduced
content of OAA (SW1990 cells [4]): reduced
ratio of NADPH/NADP+ (SW1990 cells [4]): remarkably decreased
body weight of the mice (SW1990 xenografts; [10]): no significant changes
histomorphology of the mice (SW1990 xenografts; [10]): no significant changes
tumor volume vs control group (SW1990 xenografts; 2.5 and 5 mg/kg/d intraperitoneal, 14 days, CB-17/SCID mice): significantly smaller
tumor tissue Asp (SW1990 xenografts; [11]): increased
tumor tissue Gln (SW1990 xenografts; [11]): increased
tumor tissue Mal (SW1990 xenografts; [11]): decreased
tumor tissue OAA (SW1990 xenografts; [11]): decreased
tumor tissue proportion of NADPH/NADP+ (SW1990 xenografts; [11]): decrease
IC50 (GOT1 [1]): 5.91 ± 0.04 µM
proliferation and migration (EDU staining, wound healing) (SW1990 cells [5]): anti-proliferative effect
IC50 [6]: 6.32 to 10.5 µM
apoptosis induction rate (SW1990 cells [7]; SW1990, 10 µM): 9.5%
apoptosis induction rate (SW1990 cells [7]; SW1990, 40 µM): 80.2%
intracellular ROS level (SW1990 cells [8]): positively correlated
Kd (GOT1 [9]): 2.14 ± 0.47 µM
